According to patent US20190030018A1 (Celgene Corporation, priority 2017, published 2019):

How the values were obtained:
Test in all cases: In vitro combination studies, CellTitre-Glo cell viability
[1] = test system: MOLM-13; details: MOLM-13; in combination with Compound 1
[2] = test system: MV-4-11; details: MV-4-11; in combination with Compound 1
[3] = test system: OCI-AML-2; details: OCI-AML-2; in combination with Compound 1
[4] = test system: F-36-P; details: F-36-P; in combination with Compound 1
[5] = test system: OCT-AML-3; details: OCI-AML-3; in combination with Compound 1
[6] = test system: NOMO-1; details: NOMO-1; in combination with Compound 1
[7] = test system: ML-2; details: ML-2; in combination with Compound 1
[8] = test system: KG-1; details: KG-1; in combination with Compound 1
[9] = test system: HNT-34; details: HNT-34; in combination with Compound 1
[10] = test system: HL-60; details: HL-60; in combination with Compound 1

Compound	Synergy analysis for combinations with Compound 1 [1]	Synergy analysis for combinations with Compound 1 [2]	Synergy analysis for combinations with Compound 1 [3]	Synergy analysis for combinations with Compound 1 [4]	Synergy analysis for combinations with Compound 1 [5]	Synergy analysis for combinations with Compound 1 [6]	Synergy analysis for combinations with Compound 1 [7]	Synergy analysis for combinations with Compound 1 [8]	Synergy analysis for combinations with Compound 1 [9]	Synergy analysis for combinations with Compound 1 [10]
CC(C)C[C@H](NC(=O)[C@H](CCc1ccccc1)NC(=O)CN1CCOCC1)C(=O)N[C@@H](Cc1ccccc1)C(=O)N[C@@H](CC(C)C)C(=O)[C@@]1(C)CO1 [Carfilzomib]	No	No	No	No	No	No	No	No	No	No
C[C@@H]1C[C@H]2[C@@H]3CCC4=CC(=O)C=C[C@]4(C)[C@@]3(F)[C@@H](O)C[C@]2(C)[C@@]1(O)C(=O)CO [Dexamethason]	No	No	No	No	No	Yes	No	No	No	No
CO[C@H]1CC[C@H](N2C(=O)CNc3ncc(-c4ccc(C(C)(C)O)nc4)nc32)CC1 [CC-223, 7-(6-(2-hydroxypropan-2-yl)pyridin-3-yl)-1-((trans)-4-methoxycyclohexyl)-3,4-dihydropyrazino[2,3-b]pyrazin-2(1H)-one, reference compound]	Yes	Yes	Yes	Yes	Yes	Yes	Yes	No	No	No
pladienolide B [reference compound]	Yes	Yes	Yes	Yes	No	Yes	No	No	No	No
CC(C)n1nc(-c2ccc3oc(N)nc3c2)c2c(N)ncnc21 [MLN-0128]	Yes	No	Yes	Yes	No	No	No	No	No	No
CC(C)C[C@H](NC(=O)CNC(=O)c1cc(Cl)ccc1Cl)B(O)O [Ixazomib]	No	No	No	No	No	No	No	No	No	No
C[C@H](NC(=O)Cc1cc(F)cc(F)c1)C(=O)N[C@@H]1C(=O)N(C)c2ccccc2-c2ccccc21 [YO-01027]	No	No	No	No	No	No	No	No	No	No
CN(C)C(=N)N=C(N)N [Metformin]	No	No	No	No	No	No	No	No	No	No
O=C(/C=C/c1ccccc1)NC(NC(=S)Nc1cccc2cccnc12)C(Cl)(Cl)Cl (centres unmarked) [Salubrinol]	No	No	No	No	No	No	No	No	No	No
COc1ccc(-c2c(-c3ccc(C#N)c(F)c3)nc(N3CCC(N)CC3)n(C)c2=O)cc1F [Compound B, 4-[2-(4-amino-piperidin-1-yl)-5-(3-fluoro-4-methoxy-phenyl)-1-methyl-6-oxo-1,6-dihydropyrimidin-4-yl]-2-fluoro-benzonitrile, reference compound]	Yes	No	No	Yes	No	No	No	No	No	No
Cn1cc(-c2cc(S(C)(=O)=O)ccc2OCC2CC2)c2ccccc2c1=O [Compound A, 4-[2-(cyclopropylmethoxy)-5-(methanesulfonyl)phenyl]-2-methylisoquinolin-1(2H)-one, reference compound]	Yes	No	Yes	Yes	Yes	Yes	Yes	No	No	No
chloro-N,N-diethyl-5-((4-(2-(4-(3-methylureido)phenyl)pyridin-4-yl)pyrimidin-2-yl)amino)benzenesulfonamide [compound Ii, reference compound]	Yes	Yes	Yes	Yes	Yes	Yes	No	No	No	No
COc1ccc(-c2ccc3c(N4CCOC[C@@H]4C)nc(N4CCOC[C@@H]4C)nc3n2)cc1CO [AZD8055]	Yes	No	Yes	Yes	Yes	Yes	No	No	No	No
CCN1C(=O)CNc2ncc(-c3ccc(-c4nc[nH]n4)nc3C)nc21 [CC-115, 1-ethyl-7-(2-methyl-6-(1H-1,2,4-triazol-3-yl)pyridin-3-yl)-3,4-dihydropyrazino[2,3-b]pyrazin-2(1H)-one, reference compound]	Yes	Yes	Yes	Yes	Yes	Yes	Yes	No	Yes	No
